Results as given in patent US20260191968A1, “PROTAC DEGRADERS OF MLLT1 AND/OR MLLT3” (DARK BLUE THERAPEUTICS LTD, priority 2024, published 2026).

Molecular target: T1, MLLT1 (Homo sapiens, UniProt Q03111)
T1 construct: host or cells: MV4-11
T1 sequence (Q03111 1-559): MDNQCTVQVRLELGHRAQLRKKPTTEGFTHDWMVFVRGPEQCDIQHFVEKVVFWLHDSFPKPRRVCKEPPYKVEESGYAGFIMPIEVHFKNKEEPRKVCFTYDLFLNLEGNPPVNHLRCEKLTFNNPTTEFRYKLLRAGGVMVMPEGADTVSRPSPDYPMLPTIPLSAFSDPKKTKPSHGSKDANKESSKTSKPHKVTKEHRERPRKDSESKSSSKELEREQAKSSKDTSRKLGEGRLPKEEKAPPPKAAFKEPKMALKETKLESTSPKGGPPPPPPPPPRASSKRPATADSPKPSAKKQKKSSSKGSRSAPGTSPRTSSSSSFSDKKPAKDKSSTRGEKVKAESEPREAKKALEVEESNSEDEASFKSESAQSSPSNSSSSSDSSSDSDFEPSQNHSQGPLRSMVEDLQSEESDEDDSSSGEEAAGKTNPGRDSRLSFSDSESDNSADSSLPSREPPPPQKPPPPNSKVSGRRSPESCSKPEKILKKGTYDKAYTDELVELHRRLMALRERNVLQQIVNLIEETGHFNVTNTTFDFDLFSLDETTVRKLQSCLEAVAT
Assay: MLLT1 degradation assay in MV4-11 cells (JESS chemiluminescent detection), three concentrations, 24 h
Format: cell-based
Conditions: with respect to DMSO control
Procedure, shortened: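 Read-out is % MLLT1 degradation versus DMSO, from band peak areas on a JESS chemiluminescent system. Cells (MV4-11) were exposed for 24 h at 37° C to three compound levels, 10, 100 and 1000 nM, in 0.1% DMSO.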

Structure (SMILES)	MLLT1% Degradation @ 0.01 μM	MLLT1% Degradation @ 0.1 μM	MLLT1% Degradation @ 1 μM
CN1CCC[C@@H]1c1cc2cnc(NC(=O)c3ccc(N4CCC(OCC5CCN(c6cccc7c6C(=O)N(C6CCC(=O)NC6=O)C7=O)CC5)CC4)cc3)cc2[nH]1 (stereo partly drawn) [Example 151, 4-(4-((1-(2-(2,6-dioxopiperidin-3-yl)-1,3-dioxoisoindolin-4-yl)piperidin-4-yl)methoxy)piperidin-1-yl)-N-(2-((R)-1-methylpyrrolidin-2-yl)-1H-pyrrolo[3,2-c]pyridin-6-yl)benzamide]	C (Category C: 25% ≤ C < 50% degradation)	B (Category B: 50% ≤ B < 75% degradation)	A (Category A: A ≥ 75% degradation)
CN1CCC[C@@H]1c1cc2cnc(NC(=O)c3ccc(N4CCC(C5CCN(c6cccc7c6C(=O)N(C6CCC(=O)NC6=O)C7=O)CC5)CC4)nc3)cc2[nH]1 (stereo partly drawn) [Example 152, 6-(1′-(2-(2,6-dioxopiperidin-3-yl)-1,3-dioxoisoindolin-4-yl)-[4,4′-bipiperidin]-1-yl)-N-(2-((R)-1-methylpyrrolidin-2-yl)-1H-pyrrolo[3,2-c]pyridin-6-yl)nicotinamide]	D (Category D: D < 25% degradation)	B (Category B: 50% ≤ B < 75% degradation)	A (Category A: A ≥ 75% degradation)
CN1CCC[C@@H]1c1cc2cnc(NC(=O)c3ccc(OCCN4CCC5(CC4)CCN(c4ccc6c(c4)C(=O)N(C4CCC(=O)NC4=O)C6=O)CC5)cc3)cc2[nH]1 (stereo partly drawn) [Example 166, 4-(2-(9-(2-(2,6-dioxopiperidin-3-yl)-1,3-dioxoisoindolin-5-yl)-3,9-diazaspiro[5.5]undecan-3-yl)ethoxy)-N-(2-((R)-1-methylpyrrolidin-2-yl)-1H-pyrrolo[3,2-c]pyridin-6-yl)benzamide]	C (Category C: 25% ≤ C < 50% degradation)	A (Category A: A ≥ 75% degradation)	A (Category A: A ≥ 75% degradation)
CN1CCC[C@@H]1c1cc2cnc(NC(=O)c3ccc(N4CCC(c5ccc(-c6cccc7c6C(=O)N(C6CCC(=O)NC6=O)C7=O)cc5)CC4)nc3)cc2[nH]1 (stereo partly drawn) [Example 178, 6-(4-(4-(2-(2,6-dioxopiperidin-3-yl)-1,3-dioxoisoindolin-4-yl)phenyl)piperidin-1-yl)-N-(2-((R)-1-methylpyrrolidin-2-yl)-1H-pyrrolo[3,2-c]pyridin-6-yl)nicotinamide]	C (Category C: 25% ≤ C < 50% degradation)	B (Category B: 50% ≤ B < 75% degradation)	B (Category B: 50% ≤ B < 75% degradation)
CN1CCC[C@@H]1c1cc2cnc(NC(=O)c3ccc(OCCC4CCN(c5cccc6c5C(=O)N(C5CCC(=O)NC5=O)C6=O)CC4)nc3)cc2[nH]1 (stereo partly drawn) [Example 179, 6-(2-(1-(2-(2,6-dioxopiperidin-3-yl)-1,3-dioxoisoindolin-4-yl)piperidin-4-yl)ethoxy)-N-(2-((R)-1-methylpyrrolidin-2-yl)-1H-pyrrolo[3,2-c]pyridin-6-yl)nicotinamide]	B (Category B: 50% ≤ B < 75% degradation)	B (Category B: 50% ≤ B < 75% degradation)	B (Category B: 50% ≤ B < 75% degradation)
CN1CCC[C@@H]1c1cc2cnc(NC(=O)c3ccc(N4CCN(CC5CCN(c6cc7c(cc6F)C(=O)N(C6CCC(=O)NC6=O)C7=O)CC5)CC4)cc3)cc2[nH]1 (stereo partly drawn) [Example 180, 4-(4-((1-(2-(2,6-dioxopiperidin-3-yl)-6-fluoro-1,3-dioxoisoindolin-5-yl)piperidin-4-yl)methyl)piperazin-1-yl)-N-(2-((R)-1-methylpyrrolidin-2-yl)-1H-pyrrolo[3,2-c]pyridin-6-yl)benzamide]	C (Category C: 25% ≤ C < 50% degradation)	B (Category B: 50% ≤ B < 75% degradation)	B (Category B: 50% ≤ B < 75% degradation)
CN1CCC[C@@H]1c1cc2cnc(NC(=O)c3ccc(N4CCN(CC5CCN(c6ccc(C(=O)N[C@H]7CCC(=O)NC7=O)nc6)CC5)CC4)cc3)cc2[nH]1 [Example 181, N—((S)-2,6-dioxopiperidin-3-yl)-5-(4-((4-(4-((2-((R)-1-methylpyrrolidin-2-yl)-1H-pyrrolo[3,2-c]pyridin-6-yl)carbamoyl)phenyl)piperazin-1-yl)methyl)piperidin-1-yl)picolinamide]	D (Category D: D < 25% degradation)	C (Category C: 25% ≤ C < 50% degradation)	B (Category B: 50% ≤ B < 75% degradation)
CN1CCC[C@@H]1c1cc2cnc(NC(=O)c3ccc(N4CCN(CC5CCN(c6cccc(C(=O)N[C@H]7CCC(=O)NC7=O)n6)CC5)CC4)cc3)cc2[nH]1 [Example 182, N—((S)-2,6-dioxopiperidin-3-yl)-6-(4-((4-(4-((2-((R)-1-methylpyrrolidin-2-yl)-1H-pyrrolo[3,2-c]pyridin-6-yl)carbamoyl)phenyl)piperazin-1-yl)methyl)piperidin-1-yl)picolinamide]	C (Category C: 25% ≤ C < 50% degradation)	B (Category B: 50% ≤ B < 75% degradation)	B (Category B: 50% ≤ B < 75% degradation)
CN1CCC[C@@H]1c1cc2cnc(NC(=O)c3ccc(N4CC(CN5CCN(c6ccc7c(c6)C(=O)N(C6CCC(=O)NC6=O)C7=O)CC5)C4)cc3)cc2[nH]1 (stereo partly drawn) [Example 183, 4-(3-((4-(2-(2,6-dioxopiperidin-3-yl)-1,3-dioxoisoindolin-5-yl)piperazin-1-yl)methyl)azetidin-1-yl)-N-(2-((R)-1-methylpyrrolidin-2-yl)-1H-pyrrolo[3,2-c]pyridin-6-yl)benzamide]	C (Category C: 25% ≤ C < 50% degradation)	B (Category B: 50% ≤ B < 75% degradation)	B (Category B: 50% ≤ B < 75% degradation)
CN1CCC[C@@H]1c1cc2cnc(NC(=O)c3ccc(OC4CCN(CC5CCN(c6cc7c(cc6F)C(=O)N(C6CCC(=O)NC6=O)C7=O)CC5)CC4)cc3)cc2[nH]1 (stereo partly drawn) [Example 184, 4-((1-((1-(2-(2,6-dioxopiperidin-3-yl)-6-fluoro-1,3-dioxoisoindolin-5-yl)piperidin-4-yl)methyl)piperidin-4-yl)oxy)-N-(2-((R)-1-methylpyrrolidin-2-yl)-1H-pyrrolo[3,2-c]pyridin-6-yl)benzamide]	B (Category B: 50% ≤ B < 75% degradation)	A (Category A: A ≥ 75% degradation)	A (Category A: A ≥ 75% degradation)
CN1CCC[C@@H]1c1cc2cnc(NC(=O)c3ccc(N4CCC(C#Cc5cccc6c5CN(C5CCC(=O)NC5=O)C6=O)CC4)nn3)cc2[nH]1 (stereo partly drawn) [Example 185, 6-(4-((2-(2,6-dioxopiperidin-3-yl)-1-oxoisoindolin-4-yl)ethynyl)piperidin-1-yl)-N-(2-((R)-1-methylpyrrolidin-2-yl)-1H-pyrrolo[3,2-c]pyridin-6-yl)pyridazine-3-carboxamide]	C (Category C: 25% ≤ C < 50% degradation)	B (Category B: 50% ≤ B < 75% degradation)	B (Category B: 50% ≤ B < 75% degradation)
CN1CCC[C@@H]1c1cc2cnc(NC(=O)c3ccc(N4CC[C@H](CC#Cc5cccc6c5CN(C5CCC(=O)NC5=O)C6=O)C4)nc3)cc2[nH]1 (stereo partly drawn) [Example 187, 6-((3S)-3-(3-(2-(2,6-dioxopiperidin-3-yl)-1-oxoisoindolin-4-yl)prop-2-yn-1-yl)pyrrolidin-1-yl)-N-(2-((R)-1-methylpyrrolidin-2-yl)-1H-pyrrolo[3,2-c]pyridin-6-yl)nicotinamide]	B (Category B: 50% ≤ B < 75% degradation)	B (Category B: 50% ≤ B < 75% degradation)	B (Category B: 50% ≤ B < 75% degradation)
CN1CCC[C@@H]1c1cc2cnc(NC(=O)c3ccc(N4CCC(CCCCC#Cc5cccc6c5CN(C5CCC(=O)NC5=O)C6=O)CC4)nc3)cc2[nH]1 (stereo partly drawn) [Example 188, 6-(4-(6-(2-(2,6-dioxopiperidin-3-yl)-1-oxoisoindolin-4-yl)hex-5-yn-1-yl)piperidin-1-yl)-N-(2-((R)-1-methylpyrrolidin-2-yl)-1H-pyrrolo[3,2-c]pyridin-6-yl)nicotinamide]	C (Category C: 25% ≤ C < 50% degradation)	B (Category B: 50% ≤ B < 75% degradation)	B (Category B: 50% ≤ B < 75% degradation)
CN1CCC[C@@H]1c1cc2cnc(NC(=O)c3ccc(N4CCN(C(=O)CCC5CCN(c6cccc7c6CN(C6CCC(=O)NC6=O)C7=O)CC5)CC4)cc3)cc2[nH]1 (stereo partly drawn) [Example 189, 4-(4-(3-(1-(2-(2,6-dioxopiperidin-3-yl)-1-oxoisoindolin-4-yl)piperidin-4-yl)propanoyl)piperazin-1-yl)-N-(2-((R)-1-methylpyrrolidin-2-yl)-1H-pyrrolo[3,2-c]pyridin-6-yl)benzamide]	B (Category B: 50% ≤ B < 75% degradation)	B (Category B: 50% ≤ B < 75% degradation)	C (Category C: 25% ≤ C < 50% degradation)
